Patent publication US8802597B2, “Herbicidal pyrimidines” (E I du Pont de Nemours and Company, priority 2003, dated 2014)
Where two headings read alike, the source gives them in different places.

Key:
Assay type in all cases: in vivo
[1] = system: barnyardgrass (Echinochloa crus-galli); test: Test A pre/postemergence; details: for pest or weed control at 500 g/ha: 500 g ai/ha
Summary of the method: (§1)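 Seeds sown in loam–sand blend received a preemergence directed soil spray of test chemical in non-phytotoxic solvent with surfactant; same-formulation postemergence spray given concurrently to plants 2–10 cm tall at 1- to 2-leaf stage. Greenhouse ~ten days, then visual injury rating versus untreated controls, 0 (no effect) to 100 (complete control).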

[2] = system: crabgrass (Digitaria sanguinalis); test: Test A pre/postemergence; details: for pest or weed control at 125 g/ha: 125 g ai/ha
Summary of the method: as §1

[3] = system: bermudagrass (Cynodon dactylon); test: Test C pre/postemergence; details: Preemergence
Summary of the method: (§2)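 Visual injury ratings, 0 (no effect) to 100 (complete control), made 12 to 14 days after treatment by comparison with untreated controls. Greenhouse plants received test chemical in a surfactant-containing non-phytotoxic solvent, either preemergence on planted seeds or postemergence at the 1- to 4-leaf stage.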

[4] = system: goosegrass (Eleusine indica); test: Test C pre/postemergence; details: Preemergence
Summary of the method: as §2

[5] = system: velvetleaf (Abutilon theophrasti); test: Test C pre/postemergence; details: Preemergence, scale 0 to 100, 0 no effect, 100 complete control
Summary of the method: as §2

[6] = system: woolly cupgrass (Eriochloa villosa); test: Test C pre/postemergence; details: Preemergence
Summary of the method: as §2

[7] = system: common ragweed (Ambrosia elatior); test: Test C pre/postemergence; details: Preemergence, scale 0 to 100, 0 no effect, 100 complete control
Summary of the method: as §2

[8] = system: yellow nutsedge (Cyperus esculentus); test: Test C pre/postemergence; details: Preemergence, scale 0 to 100, 0 no effect, 100 complete control
Summary of the method: as §2

[9] = system: pigweed (Amaranthus retroflexus); test: Test C pre/postemergence; details: Preemergence, scale 0 to 100, 0 no effect, 100 complete control
Summary of the method: as §2

[10] = 16 g ai/ha, scale 0 to 100, 0 no effect, 100 complete control

Nc1nc(C2CC2)nc(C(=O)[O-])c1Cl.[Na+] [Compound 77, 6-amino-5-chloro-2-cyclopropyl-4-pyrimidinecarboxylic acid monosodium salt]
pest or weed control at 125 g/ha ([1]; Echinochloa crus-galli, post-emergence, 240 h, Postemergence, 125 g ai/ha, 0 to 100 scale (0 no effect, 100 complete control), read-out: Plant response rating, Barnyardgrass): 90%
pest or weed control at 500 g/ha ([1]; Echinochloa crus-galli, post-emergence, 240 h, Postemergence, 0 to 100 scale (0 no effect, 100 complete control), read-out: Plant response rating, Barnyardgrass): 90%
pest or weed control at 500 g/ha ([1]; Echinochloa crus-galli, pre-emergence, 240 h, Preemergence, 0 to 100 scale where 0 is no effect and 100 is complete control, approximately ten days, read-out: Plant response rating, Barnyardgrass): 100%
Plant response rating, Barnyardgrass ([1]; Preemergence, 125 g ai/ha, 0 to 100 scale where 0 is no effect and 100 is complete control, approximately ten days): 90
pest or weed control at 125 g/ha ([2]; Digitaria sanguinalis, post-emergence, 240 h, Postemergence, 0 to 100 scale (0 no effect, 100 complete control), read-out: Plant response rating, Crabgrass): 70%
pest or weed control at 125 g/ha ([2]; Digitaria sanguinalis, pre-emergence, 240 h, Preemergence, 0 to 100 scale where 0 is no effect and 100 is complete control, approximately ten days, read-out: Plant response rating, Crabgrass): 70%
pest or weed control at 500 g/ha ([2]; Digitaria sanguinalis, pre-emergence, 240 h, Preemergence, 500 g ai/ha, 0 to 100 scale where 0 is no effect and 100 is complete control, approximately ten days, read-out: Plant response rating, Crabgrass): 80%
Plant response rating, Crabgrass ([2]; Postemergence, 500 g ai/ha, 0 to 100 scale (0 no effect, 100 complete control)): 90
pest or weed control at 31 g/ha ([3]; Cynodon dactylon, pre-emergence, 31 g ai/ha, scale 0 to 100, 0 no effect, 100 complete control, read-out: Plant response rating, Bermudagrass): 0%
pest or weed control at 62 g/ha ([3]; Cynodon dactylon, pre-emergence, 62 g ai/ha, scale 0 to 100, 0 no effect, 100 complete control, read-out: Plant response rating, Bermudagrass): 0%
pest or weed control at 125 g/ha ([3]; Cynodon dactylon, pre-emergence, 125 g ai/ha, scale 0 to 100, read-out: Plant response rating, Bermudagrass): 0%
Plant response rating, Bermudagrass [3, 10]: 0
pest or weed control at 31 g/ha ([4]; Eleusine indica, pre-emergence, 31 g ai/ha, scale 0 to 100, 0 no effect, 100 complete control, read-out: Plant response rating, Goosegrass): 0%
pest or weed control at 62 g/ha ([4]; Eleusine indica, pre-emergence, 62 g ai/ha, scale 0 to 100, 0 no effect, 100 complete control, read-out: Plant response rating, Goosegrass): 0%
Plant response rating, Goosegrass [4, 10]: 0
Plant response rating, Goosegrass ([4]; 125 g ai/ha, scale 0 to 100): 0
pest or weed control at 62 g/ha ([5]; Abutilon theophrasti, pre-emergence, 62 g ai/ha, read-out: Plant response rating, Velvetleaf): 85%
Plant response rating, Velvetleaf ([5]; 16 g ai/ha): 10
Plant response rating, Velvetleaf ([5]; 31 g ai/ha): 30
pest or weed control at 31 g/ha ([6]; Eriochloa villosa, pre-emergence, 31 g ai/ha, scale 0 to 100, 0 no effect, 100 complete control, read-out: Plant response rating, Cupgrass, Woolly): 0%
pest or weed control at 62 g/ha ([6]; Eriochloa villosa, pre-emergence, 62 g ai/ha, scale 0 to 100, 0 no effect, 100 complete control, read-out: Plant response rating, Cupgrass, Woolly): 0%
pest or weed control at 125 g/ha ([6]; Eriochloa villosa, pre-emergence, 125 g ai/ha, scale 0 to 100, read-out: Plant response rating, Cupgrass, Woolly): 0%
Plant response rating, Cupgrass, Woolly [6, 10]: 0
pest or weed control at 31 g/ha ([7]; Ambrosia artemisiifolia, pre-emergence, 31 g ai/ha, read-out: Plant response rating, Ragweed): 0%
pest or weed control at 62 g/ha ([7]; Ambrosia artemisiifolia, pre-emergence, 62 g ai/ha, read-out: Plant response rating, Ragweed): 50%
Plant response rating, Ragweed ([7]; 16 g ai/ha): 0
pest or weed control at 31 g/ha ([8]; Cyperus, pre-emergence, 31 g ai/ha, read-out: Plant response rating, Nutsedge, Yellow): 0%
pest or weed control at 62 g/ha ([8]; Cyperus, pre-emergence, 62 g ai/ha, read-out: Plant response rating, Nutsedge, Yellow): 0%
Plant response rating, Nutsedge, Yellow ([8]; 16 g ai/ha): 0
pest or weed control at 31 g/ha ([9]; Amaranthus retroflexus, pre-emergence, 31 g ai/ha, read-out: Plant response rating, Pigweed): 60%
pest or weed control at 62 g/ha ([9]; Amaranthus retroflexus, pre-emergence, 62 g ai/ha, read-out: Plant response rating, Pigweed): 65%
Plant response rating, Pigweed ([9]; 16 g ai/ha): 60
